In patent US6689773B2, “Uracil substituted phenyl sulfamoyl carboxamides” (BASF Aktiengesellschaft, priority 2000, dated 2004):

Experiments:
Assay type in all cases: in vivo
[1] = tested on: ABUTH, Velvetleaf, Abutilon theophrasti, Medic.; assay: Postemergence herbicidal evaluation (Example 147); settings: rating scale 0-9, two to three weeks after treatment
Method in brief: (§1)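 Visual 0-9 rating against an untreated control, scored roughly two to three weeks after a postemergence spray of two-week-old seedlings. Dose equivalent about 0.016 to 0.032 kg/ha, delivered in 80/20 acetone/water with 1.0% SUN-IT II at 40 psi.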

[2] = tested on: ALOMY, Blackgrass, Alopecurus myosuroides; assay: Postemergence herbicidal evaluation (Example 147); settings: rating scale 0-9, two to three weeks after treatment
Method in brief: as §1

[3] = tested on: AMBEL, Ragweed, Common, Ambrosia artemiisifolia, L.; assay: Postemergence herbicidal evaluation (Example 147); settings: rating scale 0-9, two to three weeks after treatment
Method in brief: as §1

[4] = tested on: CHEAL, Lambsquarters, Chenopodium album, L. Common; assay: Postemergence herbicidal evaluation (Example 147); settings: rating scale 0-9, two to three weeks after treatment
Method in brief: as §1

[5] = tested on: DIGSA, Crabgrass, (Hairy) L, Digitaria sanguinalis, (L)Scop; assay: Postemergence herbicidal evaluation (Example 147); settings: rating scale 0-9, two to three weeks after treatment
Method in brief: as §1

[6] = tested on: ECHCG, Barnyardgrass, Echinochloa crusgalli, (L.)Beau; assay: Postemergence herbicidal evaluation (Example 147); settings: rating scale 0-9, two to three weeks after treatment
Method in brief: as §1

[7] = tested on: GLXMA, Soybean, Glycine max, (L.) Merr.; assay: Postemergence herbicidal evaluation (Example 147); settings: rating scale 0-9, two to three weeks after treatment
Method in brief: as §1

[8] = tested on: IPOHE, Morningglory, Ivyleaf, Ipomoea hederacea, (L)Jacq.; assay: Postemergence herbicidal evaluation (Example 147); settings: rating scale 0-9, two to three weeks after treatment
Method in brief: as §1

[9] = tested on: SETVI, Green foxtail, Setaria viridis, (L.)Beau; assay: Postemergence herbicidal evaluation (Example 147); settings: rating scale 0-9, two to three weeks after treatment
Method in brief: as §1

[10] = tested on: TRZAW, Winter wheat, Tritium Aestivum, L. (Winter); assay: Postemergence herbicidal evaluation (Example 147); settings: rating scale 0-9, two to three weeks after treatment
Method in brief: as §1

[11] = tested on: XANST, Cocklebur, Xanthium strumariam; assay: Postemergence herbicidal evaluation (Example 147); settings: rating scale 0-9, two to three weeks after treatment
Method in brief: as §1

[12] = tested on: ZEAMX, Field corn, Zea mays L.; assay: Postemergence herbicidal evaluation (Example 147); settings: rating scale 0-9, two to three weeks after treatment
Method in brief: as §1

[13] = tested on: ABUTH, Velvetleaf, Abutilon theophrasti, Medic.; assay: Preemergence herbicidal evaluation (Example 148); settings: rating scale 0-9, two to four weeks after treatment
Method in brief: (§2)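 Each species was planted separately in cups, its seed mixed into potting soil over roughly an inch of soil. Spraying with compound in aqueous acetone followed planting (~0.125–0.250 kg/ha). Overall appearance, chlorosis and stand were compared with a control after 2–4 weeks.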

[14] = tested on: ALOMY, Blackgrass, Alopecurus myosuroides; assay: Preemergence herbicidal evaluation (Example 148); settings: rating scale 0-9, two to four weeks after treatment
Method in brief: as §2

[15] = tested on: AMBEL, Ragweed, Common, Ambrosia artemiisifolia, L.; assay: Preemergence herbicidal evaluation (Example 148); settings: rating scale 0-9, two to four weeks after treatment
Method in brief: as §2

[16] = tested on: CHEAL, Lambsquarters, Chenopodium album, L. Common; assay: Preemergence herbicidal evaluation (Example 148); settings: rating scale 0-9, two to four weeks after treatment
Method in brief: as §2

[17] = tested on: DIGSA, Crabgrass, (Hairy) L, Digitaria sanguinalis, (L)Scop; assay: Preemergence herbicidal evaluation (Example 148); settings: rating scale 0-9, two to four weeks after treatment
Method in brief: as §2

[18] = tested on: ECHCG, Barnyardgrass, Echinochloa crusgalli, (L.)Beau; assay: Preemergence herbicidal evaluation (Example 148); settings: rating scale 0-9, two to four weeks after treatment
Method in brief: as §2

[19] = tested on: GLXMA, Soybean, Glycine max, (L.) Merr.; assay: Preemergence herbicidal evaluation (Example 148); settings: rating scale 0-9, two to four weeks after treatment
Method in brief: as §2

[20] = tested on: IPOHE, Morningglory, Ivyleaf, Ipomoea hederacea, (L)Jacq.; assay: Preemergence herbicidal evaluation (Example 148); settings: rating scale 0-9, two to four weeks after treatment
Method in brief: as §2

[21] = tested on: SETVI, Green foxtail, Setaria viridis, (L.)Beau; assay: Preemergence herbicidal evaluation (Example 148); settings: rating scale 0-9, two to four weeks after treatment
Method in brief: as §2

[22] = tested on: TRZAW, Winter wheat, Tritium Aestivum, L. (Winter); assay: Preemergence herbicidal evaluation (Example 148); settings: rating scale 0-9, two to four weeks after treatment
Method in brief: as §2

[23] = tested on: XANST, Cocklebur, Xanthium strumariam; assay: Preemergence herbicidal evaluation (Example 148); settings: rating scale 0-9, two to four weeks after treatment
Method in brief: as §2

[24] = tested on: ZEAMX, Field corn, Zea mays L.; assay: Preemergence herbicidal evaluation (Example 148); settings: rating scale 0-9, two to four weeks after treatment
Method in brief: as §2

With `CCOC(=O)CN(C)S(N)(=O)=O` [compound 53] the “Postemergence herbicidal rating ABUTH” value ([1]; rate 0.016 kg/ha) was 9.0, the “Postemergence herbicidal rating ABUTH” value ([1]; rate 0.032 kg/ha) was 9.0 and the “Postemergence herbicidal rating ALMOY” value ([2]; rate 0.016 kg/ha) was 2.3. The “Postemergence herbicidal rating ALMOY” value ([2]; rate 0.032 kg/ha) was 3.0, the “Postemergence herbicidal rating AMBEL” value ([3]; rate 0.016 kg/ha) was 8.9 and the “Postemergence herbicidal rating AMBEL” value ([3]; rate 0.032 kg/ha) was 9.0. For the same molecule, the “Postemergence herbicidal rating CHEAL” value ([4]; rate 0.016 kg/ha) was 8.1, the “Postemergence herbicidal rating CHEAL” value ([4]; rate 0.032 kg/ha) was 8.4 and the “Postemergence herbicidal rating DIGSA” value ([5]; rate 0.016 kg/ha) was 5.3. For the same molecule, the “Postemergence herbicidal rating DIGSA” value ([5]; rate 0.032 kg/ha) was 6.6, the “Postemergence herbicidal rating ECHCG” value ([6]; rate 0.016 kg/ha) was 8.1 and the “Postemergence herbicidal rating ECHCG” value ([6]; rate 0.032 kg/ha) was 8.8. The “Postemergence herbicidal rating GLXMA” value ([7]; rate 0.016 kg/ha) was 8.1, the “Postemergence herbicidal rating GLXMA” value ([7]; rate 0.032 kg/ha) was 8.4 and the “Postemergence herbicidal rating IPOHE” value ([8]; rate 0.016 kg/ha) was 8.8. For the same molecule, the “Postemergence herbicidal rating IPOHE” value ([8]; rate 0.032 kg/ha) was 9.0, the “Postemergence herbicidal rating SETVI” value ([9]; rate 0.016 kg/ha) was 6.4 and the “Postemergence herbicidal rating SETVI” value ([9]; rate 0.032 kg/ha) was 7.5. For the same molecule, the “Postemergence herbicidal rating TRZAW” value ([10]; rate 0.016 kg/ha) was 5.6, the “Postemergence herbicidal rating TRZAW” value ([10]; rate 0.032 kg/ha) was 6.2 and the “Postemergence herbicidal rating XANST” value ([11]; rate 0.016 kg/ha) was 9.0. The “Postemergence herbicidal rating XANST” value ([11]; rate 0.032 kg/ha) was 9.0, the “Postemergence herbicidal rating ZEAMX” value ([12]; rate 0.016 kg/ha) was 7.2 and the “Postemergence herbicidal rating ZEAMX” value ([12]; rate 0.032 kg/ha) was 7.6. For the same molecule, the “Preemergence herbicidal rating ABUTH” value ([13]; rate 0.125 kg/ha) was 9.0, the “Preemergence herbicidal rating ABUTH” value ([13]; rate 0.25 kg/ha) was 9.0 and the “Preemergence herbicidal rating ALMOY” value ([14]; rate 0.125 kg/ha) was 1.3. The “Preemergence herbicidal rating ALMOY” value ([14]; rate 0.25 kg/ha) was 2.7, the “Preemergence herbicidal rating AMBEL” value ([15]; rate 0.125 kg/ha) was 8.9 and the “Preemergence herbicidal rating AMBEL” value ([15]; rate 0.25 kg/ha) was 9.0. For the same molecule, the “Preemergence herbicidal rating CHEAL” value ([16]; rate 0.125 kg/ha) was 9.0, the “Preemergence herbicidal rating CHEAL” value ([16]; rate 0.25 kg/ha) was 9.0 and the “Preemergence herbicidal rating DIGSA” value ([17]; rate 0.125 kg/ha) was 8.1. The “Preemergence herbicidal rating DIGSA” value ([17]; rate 0.25 kg/ha) was 8.8, the “Preemergence herbicidal rating ECHCG” value ([18]; rate 0.125 kg/ha) was 7.5 and the “Preemergence herbicidal rating ECHCG” value ([18]; rate 0.25 kg/ha) was 8.4. For the same molecule, the “Preemergence herbicidal rating GLXMA” value ([19]; rate 0.125 kg/ha) was 8.1, the “Preemergence herbicidal rating GLXMA” value ([19]; rate 0.25 kg/ha) was 8.8 and the “Preemergence herbicidal rating IPOHE” value ([20]; rate 0.125 kg/ha) was 9.0. For the same molecule, the “Preemergence herbicidal rating IPOHE” value ([20]; rate 0.25 kg/ha) was 9.0, the “Preemergence herbicidal rating SETVI” value ([21]; rate 0.125 kg/ha) was 5.7 and the “Preemergence herbicidal rating SETVI” value ([21]; rate 0.25 kg/ha) was 7.3. The “Preemergence herbicidal rating TRZAW” value ([22]; rate 0.125 kg/ha) was 1.3, the “Preemergence herbicidal rating TRZAW” value ([22]; rate 0.25 kg/ha) was 2.0 and the “Preemergence herbicidal rating XANST” value ([23]; rate 0.125 kg/ha) was 9.0. For the same molecule, the “Preemergence herbicidal rating XANST” value ([23]; rate 0.25 kg/ha) was 9.0, the “Preemergence herbicidal rating ZEAMX” value ([24]; rate 0.125 kg/ha) was 2.3 and the “Preemergence herbicidal rating ZEAMX” value ([24]; rate 0.25 kg/ha) was 4.3.

`CN(Cc1cccc(Cl)c1)S(=O)(=O)NC(=O)c1cc(-n2c(=O)cc(C(F)(F)F)n(C)c2=O)c(F)cc1Cl` [Example 55] was tested, and the “Postemergence herbicidal rating ABUTH” value ([1]; rate 0.016 kg/ha) was 9.0, the “Postemergence herbicidal rating ABUTH” value ([1]; rate 0.032 kg/ha) was 9.0 and the “Postemergence herbicidal rating ALMOY” value ([2]; rate 0.016 kg/ha) was 2.0. The “Postemergence herbicidal rating ALMOY” value ([2]; rate 0.032 kg/ha) was 2.0, the “Postemergence herbicidal rating AMBEL” value ([3]; rate 0.016 kg/ha) was 8.0 and the “Postemergence herbicidal rating AMBEL” value ([3]; rate 0.032 kg/ha) was 9.0. The “Postemergence herbicidal rating CHEAL” value ([4]; rate 0.016 kg/ha) was 7.0, the “Postemergence herbicidal rating CHEAL” value ([4]; rate 0.032 kg/ha) was 7.0 and the “Postemergence herbicidal rating DIGSA” value ([5]; rate 0.016 kg/ha) was 5.0. The “Postemergence herbicidal rating DIGSA” value ([5]; rate 0.032 kg/ha) was 6.0, the “Postemergence herbicidal rating ECHCG” value ([6]; rate 0.016 kg/ha) was 7.0 and the “Postemergence herbicidal rating ECHCG” value ([6]; rate 0.032 kg/ha) was 7.0. For the same molecule, the “Postemergence herbicidal rating GLXMA” value ([7]; rate 0.016 kg/ha) was 8.0, the “Postemergence herbicidal rating GLXMA” value ([7]; rate 0.032 kg/ha) was 8.0 and the “Postemergence herbicidal rating IPOHE” value ([8]; rate 0.016 kg/ha) was 8.0. For the same molecule, the “Postemergence herbicidal rating IPOHE” value ([8]; rate 0.032 kg/ha) was 9.0, the “Postemergence herbicidal rating SETVI” value ([9]; rate 0.016 kg/ha) was 7.0 and the “Postemergence herbicidal rating SETVI” value ([9]; rate 0.032 kg/ha) was 8.0. The “Postemergence herbicidal rating TRZAW” value ([10]; rate 0.016 kg/ha) was 6.0, the “Postemergence herbicidal rating TRZAW” value ([10]; rate 0.032 kg/ha) was 6.0 and the “Postemergence herbicidal rating XANST” value ([11]; rate 0.016 kg/ha) was 9.0. The “Postemergence herbicidal rating XANST” value ([11]; rate 0.032 kg/ha) was 8.0, the “Postemergence herbicidal rating ZEAMX” value ([12]; rate 0.016 kg/ha) was 8.0 and the “Postemergence herbicidal rating ZEAMX” value ([12]; rate 0.032 kg/ha) was 8.0. The “Preemergence herbicidal rating ABUTH” value ([13]; rate 0.125 kg/ha) was 9.0, the “Preemergence herbicidal rating ABUTH” value ([13]; rate 0.25 kg/ha) was 9.0 and the “Preemergence herbicidal rating ALMOY” value ([14]; rate 0.125 kg/ha) was 0.0. For the same molecule, the “Preemergence herbicidal rating ALMOY” value ([14]; rate 0.25 kg/ha) was 0.0, the “Preemergence herbicidal rating AMBEL” value ([15]; rate 0.125 kg/ha) was 8.0 and the “Preemergence herbicidal rating AMBEL” value ([15]; rate 0.25 kg/ha) was 9.0. For the same molecule, the “Preemergence herbicidal rating CHEAL” value ([16]; rate 0.125 kg/ha) was 8.0, the “Preemergence herbicidal rating CHEAL” value ([16]; rate 0.25 kg/ha) was 9.0 and the “Preemergence herbicidal rating DIGSA” value ([17]; rate 0.125 kg/ha) was 8.0. The “Preemergence herbicidal rating DIGSA” value ([17]; rate 0.25 kg/ha) was 8.0, the “Preemergence herbicidal rating ECHCG” value ([18]; rate 0.125 kg/ha) was 5.0 and the “Preemergence herbicidal rating ECHCG” value ([18]; rate 0.25 kg/ha) was 9.0. For the same molecule, the “Preemergence herbicidal rating GLXMA” value ([19]; rate 0.125 kg/ha) was 8.0, the “Preemergence herbicidal rating GLXMA” value ([19]; rate 0.25 kg/ha) was 8.0 and the “Preemergence herbicidal rating IPOHE” value ([20]; rate 0.125 kg/ha) was 8.0. For the same molecule, the “Preemergence herbicidal rating IPOHE” value ([20]; rate 0.25 kg/ha) was 9.0, the “Preemergence herbicidal rating SETVI” value ([21]; rate 0.125 kg/ha) was 6.0 and the “Preemergence herbicidal rating SETVI” value ([21]; rate 0.25 kg/ha) was 8.0. The “Preemergence herbicidal rating TRZAW” value ([22]; rate 0.125 kg/ha) was 1.0, the “Preemergence herbicidal rating TRZAW” value ([22]; rate 0.25 kg/ha) was 2.0 and the “Preemergence herbicidal rating XANST” value ([23]; rate 0.125 kg/ha) was 6.0. For the same molecule, the “Preemergence herbicidal rating XANST” value ([23]; rate 0.25 kg/ha) was 7.0, the “Preemergence herbicidal rating ZEAMX” value ([24]; rate 0.125 kg/ha) was 0.0 and the “Preemergence herbicidal rating ZEAMX” value ([24]; rate 0.25 kg/ha) was 1.0.
